What all share (experiment): Minimum Inhibitory Concentration (MIC) test, growth inhibition in 96 well plates via optical density
Format in all cases: cell-based

One test relates to Aspergillus brasiliensis. The following applies: lowest concentration with complete growth inhibition, A. brasiliensis; for MIC: Aspergillus brasiliensis, read-out: MIC in ppm Aspergillus brasiliensis. As to the method:
(§1) The Minimum Inhibitory Concentration (MIC) test is a test on growth inhibition. The estimation of MICs is executed in 96 well plates. Through the comparison of bacterial growth with positive and negative controls via optical density (OD), different concentrations of given test substances are evaluated.
(§2) Bacteria were cultivated under adjusted conditions based on information of the German Collection of Microorganisms and Cell Cultures (DSMZ) and stored in 10% or 50% glycerol prior to use. Afterwards, the following method was applied: Growth medium (according to microorganism) was added to each well of the microplate. Then, test-substances solved in DMSO, and strain specific benchmarks were added. Additionally, […] (water controls only with medium) and solvent controls (DMSO controls only with medium) were performed. Finally, the microorganisms were added in a concentration of 1 to 6×10^6 CFU/ml (CFU=colony forming units). The incubation of the microplates was carried out at appropriate conditions.
(§3) According to the resulting growth, substance concentrations are labelled either as inhibiting or not and MIC is defined as the lowest concentration where a complete growth inhibition is visible. Experiments at concentration limits (highest concentration labelled as growth and lowest concentration labelled as inhibiting) are performed at least twice.
(§4) Tested concentrations were adjusted to performance of test substance, but in general: 5,000 ppm steps between 50,000 ppm and 10,000 ppm, and 2500 ppm steps below 10,000 ppm, finishing with 1000 ppm. To enhance resolution of the approach, additional intermediate steps were included in individual cases. […] For ethylhexylglycerin and 1,2-pentanediol, pure substance without DMSO was tested.
(§5) To verify that the tested combinations act synergistically against microorganisms, corresponding experiments were conducted with Staphylococcus aureus, Candida albicans, Aspergillus brasiliensis, Pseudomonas aeruginosa and Escherichia coli. The synergistic activities of MAA-1 and different antimicrobial compounds in a mixture of 50% and 50% were determined by measuring the MIC of the mixture.
(§6) In order to calculate the synergy index with MIC values, the Kull equation was used as follows:
(§7) [formula] • wherein • SI is the Synergy Index according to Kull • MICA is the MIC value for Substance A • MICB is the MIC value for Substance B • MICmixture is the MIC value for the mixture of substances A and B • PA is the proportion of the substance A in the mixture • PB is the proportion of the substance B in the mixture
(§8) A Synergy Index (SI) with a value lower than 1 indicates a synergistic effect of the mixture that has been tested. Values higher than 1 indicate the absence of a synergistic effect.
(§9) For mixtures for which no MIC value has been determined, the calculation of an SI is not applicable (marked as n.a. in the following tables).

A further test relates to Candida albicans. The conditions noted are these: lowest concentration with complete growth inhibition, C. albicans; for MIC: Candida albicans, read-out: MIC in ppm Candida albicans. As to the method: as §1, §2, §3, §4, §5, §6, §7, §8, §9
A further test has as its system Escherichia coli. The following applies: lowest concentration with complete growth inhibition, E. coli; for MIC: Escherichia coli, read-out: MIC in ppm Escherichia coli. As to the method: as §1, §2, §3, §4, §5, §6, §7, §8, §9
The next test has as its system Pseudomonas aeruginosa. The conditions noted are these: lowest concentration with complete growth inhibition, P. aeruginosa; for MIC: Pseudomonas aeruginosa, read-out: MIC in ppm Pseudomonas aeruginosa. As to the method: as §1, §2, §3, §4, §5, §6, §7, §8, §9
Another test concerns Staphylococcus aureus. The following applies: lowest concentration with complete growth inhibition, S. aureus; for MIC: Staphylococcus aureus, read-out: MIC in ppm Staphylococcus aureus. Here is the method: as §1, §2, §3, §4, §5, §6, §7, §8, §9

Usually MIC stands for the smallest concentration in the dilution series that meets the test's criterion for growth inhibition.

Each structure is given as a SMILES string. Some results are limits rather than exact numbers.

On to `COc1ccc(/N=C2\CC(C)(C)CC3=C2SCC(C(=O)O)N3)cc1OC` (stereo not drawn) [MAA-13, 8-((3,4-dimethoyxphenyl)imino)-6,6-dimethyl-3,4,5,6,7,8-hexahydro-2-H-benzol[b][1,4]thiazine-3-carboxylic acid], for which the MIC is above 30 mg/mL with Aspergillus brasiliensis; 25 mg/mL in the test on Candida albicans; above 25 mg/mL in the test with Escherichia coli; above 30 mg/mL in the test on Pseudomonas aeruginosa; 25 mg/mL with Staphylococcus aureus.

With `CCOC(=O)CNC1=C/C(=N/c2ccccc2)CC(C)(C)C1` [MAA-1], the MIC with Aspergillus brasiliensis is 20 mg/mL; in the test on Candida albicans, 7.5 mg/mL; in the test on Escherichia coli, 2.5 mg/mL; with Pseudomonas aeruginosa it was above 25 mg/mL; in the test with Staphylococcus aureus, 2.5 mg/mL.

Regarding `CCCCC(CC)COCC(O)CO` (stereo not drawn) [Ethylhexylglycerin], the “MIC in ppm Aspergillus brasiliensis” value in the test with Aspergillus brasiliensis is 1,000 ppm. Also, in the test on Candida albicans, the “MIC in ppm Candida albicans” value is listed as 1,000 ppm. The “MIC in ppm Escherichia coli” value in the test with Escherichia coli was 2,500 ppm. Moreover, the “MIC in ppm Pseudomonas aeruginosa” value with Pseudomonas aeruginosa is 50,000 ppm. For the same molecule, the “MIC in ppm Staphylococcus aureus” value with Staphylococcus aureus is reported as 1,000 ppm.

For `CC(=O)c1ccc(O)cc1` [4-Hydroxy-acetophenone, 4-Hydroxyacetophenone], the “MIC in ppm Aspergillus brasiliensis” value with Aspergillus brasiliensis is reported as 2,500 ppm. Moreover, the “MIC in ppm Candida albicans” value with Candida albicans is 6,000 ppm. Moreover, in the test on Escherichia coli, the “MIC in ppm Escherichia coli” value is listed as 2,500 ppm. In addition, the “MIC in ppm Pseudomonas aeruginosa” value in the test with Pseudomonas aeruginosa was 4,000 ppm. Moreover, the “MIC in ppm Staphylococcus aureus” value in the test with Staphylococcus aureus is listed as 5,000 ppm.

For `CCCC(O)CO` (stereo not drawn) [1,2-Pentanediol], the MIC with Aspergillus brasiliensis amounted to 17.5 mg/mL; in the test with Candida albicans it was 12.5 mg/mL; with Escherichia coli it was 15 mg/mL; with Pseudomonas aeruginosa it was 30 mg/mL; in the test on Staphylococcus aureus, 35 mg/mL.

On to `CC1(C)CC(NCC(=O)O)=C/C(=N/c2ccccc2)C1` [MAA-20, 2-[(5,5-dimethyl-3-phenylimino-cyclohexen-1-yl)amino]acetic acid], for which the MIC in the test on Aspergillus brasiliensis is above 30 mg/mL; in the test with Candida albicans it was above 25 mg/mL; in the test with Escherichia coli, 15 mg/mL; in the test on Pseudomonas aeruginosa, above 30 mg/mL; in the test on Staphylococcus aureus, above 25 mg/mL.
